Article PMC6368403, “Identification of a bilirubin receptor that may mediate a component of cholestatic itch” (eLife, 2019)
“And” between values parts separate entries of the source, which are not always exact repeats. Equal entries are not always repeated.

What was measured:
MRGPRX4 = molecular target: T1, MRGPRX4 (Homo sapiens, UniProt Q96LA9); assay: Ca2+ imaging and concentration-Ca2+ response (EC50) in HEK293 cells expressing MRGPRX4; type: cell-based; conditions: for Ca2+ response (concentration-response curve): MRGPRX4, triplicate wells (Fig 2I)
T1 construct: expressed in transfected cells
T1 sequence (Q96LA9 whole entry): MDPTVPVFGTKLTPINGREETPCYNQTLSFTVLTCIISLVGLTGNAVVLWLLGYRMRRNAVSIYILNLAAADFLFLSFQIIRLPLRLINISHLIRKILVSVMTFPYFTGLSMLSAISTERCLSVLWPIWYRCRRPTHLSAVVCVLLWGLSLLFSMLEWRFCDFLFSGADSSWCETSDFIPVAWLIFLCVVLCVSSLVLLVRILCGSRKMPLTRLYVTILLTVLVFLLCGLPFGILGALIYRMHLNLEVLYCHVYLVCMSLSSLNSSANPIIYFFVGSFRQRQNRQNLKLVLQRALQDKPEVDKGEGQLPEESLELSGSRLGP
Description: (§1) All cultured cells were maintained in DMEM supplemented with 10% FBS and 1% Penicillin/Streptomycin at 37°C, 5% CO2. All data included were generated from cells tested for mycoplasma and found to be negative. Cells were imaged in calcium imaging buffer (CIB; 10 mM HEPES, 1.2 mM NaHCO3, 130 mM NaCl, 3 mM KCl, 2.5 mM CaCl2, 0.6 mM MgCl2, 20 mM glucose, and 20 mM sucrose at pH 7.4 and 290–300 mOsm). To monitor changes in intracellular [Ca^2+] ([Ca^2+]i), cells were loaded with either Fura 2-AM (HEK293 cells) or Fluo 4-AM (DRG neurons and mast cells) for 30 min in the dark at 37°C in CIB just prior to imaging. With Fura 2-AM, emission at 510 nm was monitored from excitation at both 340 nm and 380 nm. With Fluo 4-AM, emission at 520 nm was monitored from excitation at 488 nm. Cells were identified as responding if the intracellular [Ca^2+] rose by either 50% compared to baseline or 50% compared to the [Ca^2+]i change assayed during addition of 50 mM KCl (neurons only). Damaged, detached, high-baseline, and motion-activated cells were excluded from analysis.
(§2) In initial screens, HEK293 cells stably expressing the murine G-protein alpha-subunit Gα15, a unique Gα protein that non-selectively couples a large variety of GPCRs to phospholipase C ^30, were plated on poly-D-lysine-coated coverslips and transiently transfected with constructs encoding the MRGRPR of interest. 12–24 hr later, cells were loaded with the Fura 2-AM. Unless otherwise specified, compounds were perfused into the imaging chamber for approximately thirty seconds after a baseline period was established. Response was then monitored at 5 s intervals for an additional 60 s.
(§3) HEK293 cells stably expressing either MRGPRA1, MRGPRX4, and MRGRPC11 were seeded in poly-D-lysine-coated 96-well plates at 10,000 cells/well. Cells were loaded with Fura 2–AM, washed twice, and maintained in CIB. Haem metabolites were freshly dissolved in DMSO in dim light and then diluted into a buffer comprised of 20 mM Tris and 150 mM NaCl at pH 8.8. Potential changes in pH were evaluated prior to each experiment. EC50 values were determined from dose-responses performed in triplicate, repeated 2–4 times. To determine potential antagonism by QWF against bilirubin, cells were treated with varying doses of QWF for 1 min in CIB prior to application of agonist.
(§4) HEK293 stable cell lines expressing GFP-tagged MRGPRA3, MRGPRC11, MRGPRD, MRGPRX1, and MRGPRX2 were generated in previously described reports ([Liu et al., 2009]; [Liu et al., 2012]; [McNeil et al., 2015]). Briefly, plasmids containing the receptor of interest were transfected into HEK cells using Lipofectamine 3000. After 3 days, cells were then selected using 0.5 mg/mL G418. After 3 weeks, monoclonal colonies were established and each the highest expressing clones were identified. For this study, Mrgpra1 and MRGPRX4 were inserted into pEGFP-N1 and transfected into HEK293 cells. MRGPR-positive cells were selected using 0.5 mg/mL G418 for three weeks, after which GFP-positive cells were sorted by FACS and monoclonally expanded. Two lines expressing similar levels of MRGPRA1 and MRGPRX4, as measured by GFP fluorescence, were selected for study.

MRGPRA1 [1] = molecular target: T2, MRGPRA1 (Mus musculus, UniProt Q91WW5); assay: Ca2+ imaging and concentration-Ca2+ response (EC50) in HEK293 cells expressing MRGPRA1; type: cell-based; conditions: for Calcium response / activation of MRGPRA1-expressing cells: 50 µM bilirubin, 30 µM FMRF; for Ca2+ response (concentration-response curve): MRGPRA1, triplicate wells (Fig 2D)
T2 construct: expressed in transfected cells
T2 sequence (Q91WW5 1-304): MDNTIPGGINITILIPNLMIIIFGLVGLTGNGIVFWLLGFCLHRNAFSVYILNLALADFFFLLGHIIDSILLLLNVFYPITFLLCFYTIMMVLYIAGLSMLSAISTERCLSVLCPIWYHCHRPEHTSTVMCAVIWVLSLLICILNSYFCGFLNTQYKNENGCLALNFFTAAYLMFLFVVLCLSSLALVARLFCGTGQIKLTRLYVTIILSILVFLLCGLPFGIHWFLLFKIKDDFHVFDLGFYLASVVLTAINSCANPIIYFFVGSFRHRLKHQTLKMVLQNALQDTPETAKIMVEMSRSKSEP
Description: as §1, §2, §3, §4

MRGPRA1 [2] = molecular target: T2, MRGPRA1; assay: Microscale thermophoresis binding to MRGPRA1; parameters: Transformed binding isotherm (mean of three experiments): unit not given here; conditions: for Transformed binding isotherm (mean of three experiments): MRGPRA1 (Fig 2E); for Binding to MRGPRA1: microscale thermophoresis
Description: Binding isotherms for MRGPRA1, MRGPRX4, and MRGRPC11 towards various ligands were determined by microscale thermophoresis with the NanoTemper monolith NT.115 instrument ([Duhr and Braun, 2006]). Ligands were pre-incubated with 10 µM of the GFP-tagged receptor of interest for 5 min at room temperature in binding buffer (20 mM Tris and 150 mM NaCl at pH 8.8). Receptors were crudely purified as a membrane fraction from cells stably expressing the receptor ([Vasavda et al., 2017]). Haem metabolites were freshly dissolved in 0.1 M NaOH in dim light and then diluted into assay buffer. Lyophilized BAM8-22 was dissolved in binding buffer. The pH of each ligand was evaluated prior to incubation with a receptor. Samples were loaded into NT.115 Hydrophobic-Treated Capillaries from NanoTemper. Microscale thermophoretic experiments were executed using 20% LED power and 15% MST power. KDs were calculated using the law of mass action with data from three independent experiments. Binding between bilirubin and receptors was evaluated purely thermophoretically, whereas binding between BAM8-22 and MRGPRC11 was evaluated by T-Jump. Samples with dramatic deviations in initial fluorescence were excluded.

Row | Calcium response / activation of MRGPRX4-expressing cells (MRGPRX4) | Calcium response / activation of MRGPRA1-expressing cells (MRGPRA1 [1]) | Transformed binding isotherm (mean of three experiments) (MRGPRA1 [2]; [Ligand] 1.221e-7 M) | Transformed binding isotherm (mean of three experiments) (MRGPRA1 [2]; [Ligand] 2.441e-7 M) | Transformed binding isotherm (mean of three experiments) (MRGPRA1 [2]; [Ligand] 4.883e-7 M) | Transformed binding isotherm (mean of three experiments) (MRGPRA1 [2]; [Ligand] 9.766e-7 M) | Transformed binding isotherm (mean of three experiments) (MRGPRA1 [2]; [Ligand] 1.9531e-6 M) | Transformed binding isotherm (mean of three experiments) (MRGPRA1 [2]; [Ligand] 3.9063e-6 M) | Transformed binding isotherm (mean of three experiments) (MRGPRA1 [2]; [Ligand] 7.8125e-6 M) | Transformed binding isotherm (mean of three experiments) (MRGPRA1 [2]; [Ligand] 1.5625e-5 M) | Transformed binding isotherm (mean of three experiments) (MRGPRA1 [2]; [Ligand] 3.125e-5 M) | Transformed binding isotherm (mean of three experiments) (MRGPRA1 [2]; [Ligand] 6.25e-5 M) | Transformed binding isotherm (mean of three experiments) (MRGPRA1 [2]; [Ligand] 0.000125 M) | Transformed binding isotherm (mean of three experiments) (MRGPRA1 [2]; [Ligand] 0.00025 M) | Transformed binding isotherm (mean of three experiments) (MRGPRA1 [2]; [Ligand] 0.0005 M) | Molecule | Binding to MRGPRA1 (MRGPRA1 [2]) | other results
1 | activated MRGPRX4 | activated MRGPRA1-expressing cells | 8.864 | 12.0246 | -13.1442 | 10.2399 | -8.006 | -10.5584 | -9.562 | -5.789 | -4.24 | 37.7812 | 5.5559 | 6.134 | 25.273 | C=CC1=C(C)/C(=C/c2[nH]c(Cc3[nH]c(/C=C4\NC(=O)C(C)=C4C=C)c(C)c3CCC(=O)NCCS(=O)(=O)O)c(CCC(=O)NCCS(=O)(=O)O)c2C)NC1=O [conjugated bilirubin, bilirubin ditaurate] | lower affinity than unconjugated bilirubin | Ca2+ response (concentration-response curve) (MRGPRX4; [Ligand] 3.90625e-6 M): 1.434 and 1.4137 and 1.361; Ca2+ response (concentration-response curve) (MRGPRX4; [Ligand] 7.8125e-6 M): 1.454 and 1.384 and 1.354; Ca2+ response (concentration-response curve) (MRGPRX4; [Ligand] 1.5625e-5 M): 1.439 and 1.34 and 1.332; Ca2+ response (concentration-response curve) (MRGPRX4; [Ligand] 3.125e-5 M): 1.623 and 1.449 and 1.378; Ca2+ response (concentration-response curve) (MRGPRX4; [Ligand] 6.25e-5 M): 1.761 and 1.61 and 1.52; Ca2+ response (concentration-response curve) (MRGPRX4; [Ligand] 0.000125 M): 1.756 and 1.629 and 1.666; Ca2+ response (concentration-response curve) (MRGPRX4; [Ligand] 0.00025 M): 1.735 and 1.736 and 1.6528; Ca2+ response (concentration-response curve) (MRGPRX4; [Ligand] 0.0005 M): 1.775 and 1.779 and 1.74; Ca2+ response (concentration-response curve) (MRGPRA1 [1]; [Ligand] 7.8125e-6 M): 1.221 and 1.276 and 1.273; Ca2+ response (concentration-response curve) (MRGPRA1 [1]; [Ligand] 1.5625e-5 M): 1.253 and 1.283 and 1.252; Ca2+ response (concentration-response curve) (MRGPRA1 [1]; [Ligand] 3.125e-5 M): 1.222 and 1.225 and 1.221; Ca2+ response (concentration-response curve) (MRGPRA1 [1]; [Ligand] 6.25e-5 M): 1.19 and 1.186 and 1.177; Ca2+ response (concentration-response curve) (MRGPRA1 [1]; [Ligand] 0.000125 M): 1.212 and 1.254 and 1.214; Ca2+ response (concentration-response curve) (MRGPRA1 [1]; [Ligand] 0.00025 M): 1.3325 and 1.3437 and 1.301; Ca2+ response (concentration-response curve) (MRGPRA1 [1]; [Ligand] 0.0005 M): 1.4484 and 1.4326 and 1.424; Ca2+ response (concentration-response curve) (MRGPRA1 [1]; [Ligand] 0.001 M): 1.572 and 1.554 and 1.499; Transformed binding isotherm (mean of three experiments) (MRGPRA1 [2]; [Ligand] 0.001 M): 43.2348
2 | had no effect | failed to activate MRGPRA1 | 0 | 0 | 0 | 0 | 0 | 0 | 0 | 0 | 0 | 0 | 0 | 0 | 0 | hemin | did not bind | Transformed binding isotherm (mean of three experiments) (MRGPRA1 [2]; [Ligand] 3.05e-8 M): 0; Transformed binding isotherm (mean of three experiments) (MRGPRA1 [2]; [Ligand] 6.1e-8 M): 0
